Results published in ChEMBL document CHEMBL3885861, “Open TG-GATES”.

Species: Rattus norvegicus
Assay: Open TG-GATES - Regimen: Daily Repeat
Assay type: toxicity, organism-based, Sprague-Dawley
Set-up: regimen Daily Repeat, gender Male, age 6 weeks
Conditions: in vivo, iv, route intravenous injection; for APTT / Bas / Eos / Fbg / Hb / Ht / Lym / MCV / Mono / Plat / RBC / Ret / WBC / MCHC / PT: tissue Blood; for KIDNEY_L / KIDNEY_R / KIDNEY_TOTAL: tissue Kidney; for ALP / ALT / BUN / CRE / DBIL / GLC / IP / K / LDH / PL / RALB / TBIL / TC / TG / TP / gamma-GTP / AST: tissue Plasma; for LIVER: tissue Liver
[1] = 0 mg/kg, 72 h, dose level Control, time 3 day
[2] = 0 mg/kg, […], dose level Control, time 7 day
[3] = 0 mg/kg, […], dose level Control, time 14 day
[4] = 0 mg/kg, […], dose level Control, time 28 day
[5] = 1 mg/kg, 72 h, dose level High, time 3 day

CISPLATIN
TERMINAL_BW [1]: 225.2 g
APTT [1]: 23.7 s
Bas [1]: 0%
Eos [1]: 1%
Fbg [1]: 289.6 mg/dL
Hb [1]: 12.9 g/dL
Ht [1]: 39.8%
Lym [1]: 80.8%
MCV [1]: 63 fL
Mono [1]: 2.6%
Plat [1]: 132.8 x10_4/uL
RBC [1]: 631.8 x10_4/ul
Ret [1]: 5.8%
WBC [1]: 106.8 x10_2/uL
KIDNEY_L [1]: 1 g
KIDNEY_R [1]: 1 g
KIDNEY_TOTAL [1]: 1.9 g
ALP [1]: 1659.4 IU/L
ALT [1]: 40.4 IU/L
BUN [1]: 16.2 mg/dL
CRE [1]: 0.2 mg/dL
DBIL [1]: 0 mg/dL
GLC [1]: 196.6 mg/dL
IP [1]: 6.7 mg/dL
K [1]: 4.2 meq/L
LDH [1]: 219.6 IU/L
PL [1]: 136 mg/dL
RALB [1]: 2.9 g/dL
TBIL [1]: 0.004 mg/dL
TC [1]: 69.4 mg/dL
TG [1]: 113.4 mg/dL
TP [1]: 5.4 g/dL
gamma-GTP [1]: 1.6 IU/L
TERMINAL_BW [2]: 261.4 g
TERMINAL_BW [3]: 291.7 g
TERMINAL_BW [4]: 381.4 g
APTT [2]: 24.4 s
Bas [2]: 0%
Eos [2]: 1%
Fbg [2]: 309.2 mg/dL
Ht [2]: 40.3%
Lym [2]: 80%
MCHC [2]: 32.7%
MCV [2]: 63.8 fL
Mono [2]: 2.4%
PT [2]: 16.1 s
Plat [2]: 128.5 x10_4/uL
RBC [2]: 632.6 x10_4/ul
Ret [2]: 5.5%
WBC [2]: 155.9 x10_2/uL
APTT [3]: 23.9 s
Bas [3]: 0%
Eos [3]: 0.8%
Fbg [3]: 345.4 mg/dL
Ht [3]: 41.9%
Lym [3]: 80.8%
MCHC [3]: 33%
MCV [3]: 60.9 fL
Mono [3]: 2.8%
PT [3]: 15.9 s
Plat [3]: 117.5 x10_4/uL
RBC [3]: 688.8 x10_4/ul
Ret [3]: 3.8%
WBC [3]: 116.1 x10_2/uL
APTT [4]: 24.5 s
Bas [4]: 0%
Eos [4]: 1.2%
Fbg [4]: 311.4 mg/dL
Hb [4]: 14.6 g/dL
Ht [4]: 42.7%
Lym [4]: 81.4%
MCHC [4]: 34.1%
MCV [4]: 56.4 fL
Mono [4]: 3%
PT [4]: 16 s
Plat [4]: 104.7 x10_4/uL
RBC [4]: 757.6 x10_4/ul
Ret [4]: 2.2%
WBC [4]: 114.2 x10_2/uL
KIDNEY_L [2]: 1.1 g
KIDNEY_R [2]: 1.1 g
KIDNEY_TOTAL [2]: 2.2 g
KIDNEY_L [3]: 1.2 g
KIDNEY_R [3]: 1.2 g
KIDNEY_TOTAL [3]: 2.3 g
KIDNEY_L [4]: 1.3 g
KIDNEY_R [4]: 1.3 g
KIDNEY_TOTAL [4]: 2.7 g
LIVER [2]: 12.3 g
LIVER [4]: 15.5 g
ALP [2]: 1680.4 IU/L
ALT [2]: 40.2 IU/L
BUN [2]: 17.6 mg/dL
CRE [2]: 0.2 mg/dL
DBIL [2]: 0 mg/dL
IP [2]: 7.2 mg/dL
K [2]: 4.3 meq/L
LDH [2]: 185.6 IU/L
PL [2]: 135.8 mg/dL
RALB [2]: 2.9 g/dL
TBIL [2]: 0.002 mg/dL
TC [2]: 69.2 mg/dL
TG [2]: 124.6 mg/dL
TP [2]: 5.4 g/dL
gamma-GTP [2]: 2.2 IU/L
ALP [3]: 1400.6 IU/L
ALT [3]: 41.2 IU/L
AST [3]: 81.4 IU/L
BUN [3]: 19 mg/dL
CRE [3]: 0.2 mg/dL
DBIL [3]: 0 mg/dL
GLC [3]: 182.2 mg/dL
IP [3]: 7.2 mg/dL
K [3]: 4.3 meq/L
LDH [3]: 164.4 IU/L
PL [3]: 146.8 mg/dL
RALB [3]: 3.1 g/dL
TBIL [3]: 0.002 mg/dL
TC [3]: 70.4 mg/dL
TG [3]: 117.6 mg/dL
TP [3]: 5.8 g/dL
gamma-GTP [3]: 1.8 IU/L
ALP [4]: 1048.2 IU/L
ALT [4]: 37.8 IU/L
AST [4]: 65.2 IU/L
BUN [4]: 19.2 mg/dL
CRE [4]: 0.2 mg/dL
DBIL [4]: 0 mg/dL
GLC [4]: 196.6 mg/dL
IP [4]: 6.4 mg/dL
K [4]: 4.2 meq/L
LDH [4]: 130.2 IU/L
RALB [4]: 3.1 g/dL
TBIL [4]: 0.004 mg/dL
TC [4]: 74.2 mg/dL
TG [4]: 141.8 mg/dL
TP [4]: 6 g/dL
gamma-GTP [4]: 2.8 IU/L
APTT [5]: 23.7 s
Bas [5]: 0%
Eos [5]: 1%
Fbg [5]: 288.4 mg/dL
Ht [5]: 40.9%
Lym [5]: 87%
MCHC [5]: 33%
